In patent US20210363254A1, “PHARMACEUTICAL COMBINATIONS” (Novartis AG, priority 2018, published 2021):
Where two headings read alike, the source gives them in different places.

Key:
Colon 26 tumors = assay: Anti-tumor activity in Colon 26 syngeneic tumor model (8020 Colon 26-XEF); format: in vivo, mouse
Procedure: (§1) Time to endpoint. Balb/c mice were implanted with 2×10^5 Colon 26 cells subcutaneously. Mice were treated with HDM201 at 40 mg/kg×3 for every 3h po on Days 12, 19 and 26 post cell implant, and the aPD-1 antibody at 5 mg/kg ip on days 12, 15, 19, and 22. End point was defined as tumor volume equal or greater than 1000 mm^3. Log Rank, p<0.05.
as §1, with “FIG. 25: Individual Tumor Growth Curves (8020 Colon 26-XEF) Individual tumor growth curves.” for “Time to endpoint.”, “equal to” for “equal”, “The horizontal dashed line indicates the tumor endpoint tumor size (1000 mm^3).” for “Log Rank, p<0.05.”
Colon 26 cells were harvested at 80-95% confluence, washed, and re-suspended in cold PBS at a concentration of 2×10^6 cells/ml. Finally, 0.2×10^6 cells in a total volume of 100 μL were implanted subcutaneously (sc) into the upper right flank of naive Balb/c mice.
For Study 8020 Colon 26-XEF, animals were randomized and enrolled onto the study when tumor volumes reached a range of 27-60 mm^3 on day 10 post cell implantation. All treatments were initiated three days later on day 13. For the PD studies, animals were randomized when the mean tumor volume reached 100˜120 mm^3.
The designs of studies 7628 Colon 26-XPD, 8063 Colon 26-XPD and 8020 Colon 26-XEF including dose and schedule for treatment groups are summarized in Tables Ex3.2 to Ex3.4. Animals were weighed on dosing day(s) and the dosing volume was adjusted to body weight to 10 ml/kg. Tumor dimensions and body weights were recorded at the time of randomization and twice weekly thereafter for the study duration. The following data were collected after each day of data collection: incidence of mortality, individual and group average body weights, and individual and group average tumor volume.
Percent treatment/control (% T/C) and percent regression (% Reg) values were calculated using the following formulas, respectively:
% Reg=100×ΔT/Tinitial if ΔT<0 […]
A Kaplan-Meier survival analysis was performed to compare differences in time to endpoint (TTE). Mice were scored as achieving tumor endpoint once tumor volume exceeded 1000 mm^3 and scored as dead (“1”). […]
The anti-tumor activity of HDM201 with aPD1 antibody targeting the PD-1/PD-L1 axis was explored in the Colon 26 murine syngeneic model (8020 Colon 26-XEF). […] Tumor growth delay was assessed as median time to endpoint using the Kaplan-Meier analysis (GraphPad v7.0).

[1] = format: in vivo
From the text: The endpoint for the primary objective is the incidence of Dose Limiting Toxicities (DLTs) during the first cycle of treatment. Although the primary analysis estimates the MTD based on DLT rate, the final preferred dose determination utilizes additional data beyond cycle 1 DLT rate, including later cycle tolerability, PK, PD and anti-tumor activity.
Therefore, dose limiting hematologic toxicities occurring in cycle 2 were also factored into dose escalation decisions during the course of the study, using a non-binding sensitivity model. Table Ex2.4 summarizes the number of dose limiting toxicities during cycle 1 and dose limiting hematologic toxicities in cycle 2 across all the regimens evaluated in solid tumors.
This study utilizes a Bayesian logistic regression model (BLRM) to support dose escalation and estimate the MTD and/or determine the preferred dose for HDM201. The BLRM with escalation with overdose control (EWOC) enables incorporation of available prior information and updates the model parameters based upon new information about observed dose limiting toxicities (DLT) seen in the clinical study. During the course of the dose escalation for regimen 1A and 1B, DLT incidence has been used to update the model and support the decision for the next dose. When during the course of the study it became apparent that HDM201 induced bone marrow toxicity occurred predominantly during cycle 2, a non-binding sensitivity model including cycle 1 DLT and hematologic dose limiting AEs in cycle 2 (weighting all cytopenias equally) was used to guide dose escalation/RDE determinations. Additionally, decisions were at all times based on a synthesis of relevant data available from all dose levels evaluated in the study including low grade toxicities, PK, and PD data (when available) from evaluable patients.

[2] = 1A (d 1 Q3 weeks) 12.5 mg (n = 1)
[3] = 1B (d 1, d 8 of 4 w cycle) 120 mg (n = 9)
[4] = 2A (2 weeks on/2 weeks off) 1 mg (n = 1)
[5] = 2C (1 week on/3 weeks off) 15 mg (n = 8)

Compound: COc1ncc(-c2nc3c(n2C(C)C)[C@H](c2ccc(Cl)cc2)N(c2cc(Cl)cn(C)c2=O)C3=O)c(OC)n1 [HDM201, (S)-5-(5-Chloro-1-methyl-2-oxo-1,2-dihydro-pyridin-3-yl)-6-(4-chloro-phenyl)-2-(2,4-dimethoxy-pyrimidin-5-yl)-1-isopropyl-5,6-dihydro-1H-pyrrolo[3,4-d]imidazol-4-one]
- animals with partial response (Colon 26 tumors; 10 mice per group): 1/10
- complete tumor regression / complete responses (CR), animals (Colon 26 tumors; 10 mice per group, HDM201 40 mg/kg 3×q3h po weekly, aPD1 Ab 5 mg/kg ip): no CR
- tumor growth (Colon 26 tumors; HDM201 40 mg/kg): inhibited tumor growth
- median time to endpoint (TV≥1000 mm^3), Kaplan-Meier (Colon 26 tumors; HDM201 40 mg/kg 3×q3h po weekly, aPD1 Ab 5 mg/kg ip, vehicle 23 days): 31.5 days
- DLTs (cycle 1) ([1]; 1A 25 mg (n = 1)): 0
- Hematologic dose limiting toxicities (cycle 2) ([1]; 1A 25 mg (n = 1)): 0
- DLTs (cycle 1) ([1]; 1A 50 mg (n = 4)): 0
- Hematologic dose limiting toxicities (cycle 2) ([1]; 1A 50 mg (n = 4)): 1
- DLTs (cycle 1) ([1]; 1A 100 mg (n = 4)): 0
- Hematologic dose limiting toxicities (cycle 2) ([1]; 1A 100 mg (n = 4)): 0
- DLTs (cycle 1) ([1]; 1A 200 mg (n = 5)): 0
- Hematologic dose limiting toxicities (cycle 2) ([1]; 1A 200 mg (n = 5)): 1
- DLTs (cycle 1) ([1]; 1A 250 mg (n = 6)): 0
- Hematologic dose limiting toxicities (cycle 2) ([1]; 1A 250 mg (n = 6)): 1
- DLTs (cycle 1) ([1]; 1A 350 mg (n = 5)): 2
- Hematologic dose limiting toxicities (cycle 2) ([1]; 1A 350 mg (n = 5)): 2
- DLTs (cycle 1) [1, 2]: 0
- Hematologic dose limiting toxicities (cycle 2) [1, 2]: 0
- DLTs (cycle 1) ([1]; 1B 150 mg (n = 8)): 1
- Hematologic dose limiting toxicities (cycle 2) ([1]; 1B 150 mg (n = 8)): 1
- DLTs (cycle 1) ([1]; 1B 200 mg (n = 3)): 0
- DLTs (cycle 1) [1, 3]: 0
- Hematologic dose limiting toxicities (cycle 2) [1, 3]: 2
- DLTs (cycle 1) ([1]; 2A 2 mg (n = 2)): 0
- Hematologic dose limiting toxicities (cycle 2) ([1]; 2A 2 mg (n = 2)): 0
- DLTs (cycle 1) ([1]; 2A 4 mg (n = 4)): 0
- Hematologic dose limiting toxicities (cycle 2) ([1]; 2A 4 mg (n = 4)): 0
- DLTs (cycle 1) ([1]; 2A 7.5 mg (n = 4)): 0
- Hematologic dose limiting toxicities (cycle 2) ([1]; 2A 7.5 mg (n = 4)): 0
- DLTs (cycle 1) ([1]; 2A 15 mg (n = 4)): 0
- Hematologic dose limiting toxicities (cycle 2) ([1]; 2A 15 mg (n = 4)): 1
- DLTs (cycle 1) ([1]; 2A 20 mg (n = 5)): 0
- Hematologic dose limiting toxicities (cycle 2) ([1]; 2A 20 mg (n = 5)): 4
- DLTs (cycle 1) [1, 4]: 0
- Hematologic dose limiting toxicities (cycle 2) [1, 4]: 0
- DLTs (cycle 1) ([1]; 2C 20 mg (n = 6)): 0
- Hematologic dose limiting toxicities (cycle 2) ([1]; 2C 20 mg (n = 6)): 0
- DLTs (cycle 1) ([1]; 2C 25 mg (n = 5)): 2
- Hematologic dose limiting toxicities (cycle 2) ([1]; 2C 25 mg (n = 5)): 0
- DLTs (cycle 1) [1, 5]: 0
- Hematologic dose limiting toxicities (cycle 2) [1, 5]: 1
- Median DLT rate, per protocol analysis ([1]; BLRM, regimen 1B 120 mg): 3.5%
- Median DLT rate, sensitivity analysis ([1]; BLRM, regimen 1B 120 mg): 25.7%
- RDE for patients with solid tumors ([1]; D1 and D8 of each 28 day cycle): 120 mg
- DLTs (cycle 1), Total ([1]; regimen 1A, N = 26): 2
- Hematologic dose limiting toxicities (cycle 2), Total ([1]; regimen 1A, N = 26): 5
- dose up to which BLRM (cycle 1 DLT events) supported escalation ([1]; regimen 1B): up to 400 mg
- events of prolonged neutropenia meeting DLT criteria ([1]; regimen 1B 150 mg, onset on day 22, lasting 18 days): One
- DLTs (cycle 1), Total ([1]; regimen 1B, N = 20): 1
- Hematologic dose limiting toxicities (cycle 2), Total ([1]; regimen 1B, N = 20): 3
- DLTs (cycle 1), Total ([1]; regimen 2A, N = 20): 0
- Hematologic dose limiting toxicities (cycle 2), Total ([1]; regimen 2A, N = 20): 5
- DLTs (cycle 1), Total ([1]; regimen 2C, N = 19): 2
- Hematologic dose limiting toxicities (cycle 2), Total ([1]; regimen 2C, N = 19): 1
- Dose-limiting toxicities (type) ([1]; typically occurring during Cycle 2): neutropenia and thrombocytopenia
